These results are taken from PubChem BioAssay AID1996.

The term solubility (kinetic) denotes solubility judged after dilution from a stock solution rather than from solid.

In brackets after ≈: the same amount, converted by molar mass. Where only a bound is given, the exact number is not on record here.

For this data set the following is noted: buffer; pH 7.4; 200.0 µM.
With `O=C(c1ccc(F)cc1)C1CCN(C(=O)c2ccc(F)cc2)CC1`, the solubility (kinetic) was above 49.4 µg/mL.
Under `CCc1cc(=O)[nH]c(SCCc2ccccc2)n1` stands above 39.1 µg/mL; under `CS(=O)(=O)N(CC(=O)Nc1ccccc1F)C1CCCCC1`, 47.3 µg/mL (≈ 144 µM).
`CN1CCN(/N=C/c2c[nH]c3ccccc23)CC1` returned a kinetic solubility above 36.3 µg/mL.
As for `N/C(Cc1ccc([N+](=O)[O-])cc1)=N\OC(=O)c1ccccc1F`, the kinetic solubility was 2.6 µg/mL (≈ 8.19 µM).
In the case of `Cc1ccc(C(=O)Nc2c(C)cc(-c3ccccc3)oc2=O)cc1` it was below 0.7 µg/mL.
The compound `CC1CCCCC1NC(=O)c1cc(=O)[nH]c2ccccc12` (stereo not drawn) gave a solubility (kinetic) of 3.6 µg/mL (≈ 12.7 µM).
For `COc1ccc(CCNC(=O)Cc2ccsc2)cc1`, the solubility (kinetic) is above 41.3 µg/mL.
Compound `COc1nc(C)ccc1-c1noc(-c2cccs2)n1` gave a solubility (kinetic) of 2.5 µg/mL (≈ 9.15 µM).
Under `Cc1cc(C(=O)COC(=O)C2=COCCO2)c(C)n1-c1ccccc1` stands 14.9 µg/mL (≈ 43.6 µM); under `Nc1cn(C2OC(CO)C(O)C2O)c(=O)[nH]c1=O` (stereo not drawn), above 38.9 µg/mL.
With `Cc1cccn2c(=O)c(C=O)c(N3CCC4(CC3)OCCO4)nc12`, the kinetic solubility was above 49.4 µg/mL.
In the case of `CCOC(=O)c1cc2c(=O)c3ccccc3oc2nc1C` it was 2.1 µg/mL (≈ 7.41 µM); in that of `NC(=O)c1ccc(NC(=O)COC(=O)CCN2C(=O)c3ccccc3C2=O)cc1`, above 59.3 µg/mL; in that of `O=C(NC1CCCC1)c1cc(-c2ccccc2)nc2ccccc12`, 1.4 µg/mL (≈ 4.42 µM).
`CC(C)CC(=O)N1CCN(Cc2cccc(Cl)c2)CC1` registered a solubility (kinetic) of 24.8 µg/mL (≈ 84.1 µM).
Regarding `COS(=O)(=O)[O-].Cn1c(Cc2ccccc2)[n+](C)c2ccccc21`, the kinetic solubility was 50.7 µg/mL.
In the case of `CC1(C)CC(=O)c2sc(NS(=O)(=O)c3ccc(Cl)cc3)nc2C1` it was above 55.6 µg/mL.
`O=C(O)c1ccccc1C(=O)Nc1nc(-c2ccccc2)cs1` registered a kinetic solubility of 43.2 µg/mL (≈ 133 µM).
Under `COc1ccc(C(=O)COC(=O)/C=C/c2ccccc2[N+](=O)[O-])cc1` stands 10.2 µg/mL (≈ 29.9 µM).
`CCN(CC)c1nc2c(c(=O)n(C)c(=O)n2C)n1CCCc1ccccc1` had a kinetic solubility of 50.7 µg/mL (≈ 137 µM).
`COC(=O)/C=C1\N/C(=N\c2nc(C)cc(C)n2)N(c2ccc(Cl)cc2)C1=O` gave a solubility (kinetic) of 57.6 µg/mL (≈ 149 µM). This solubility kinetic and that of the compound before are within 1.5-fold of each other.
`O=C(Nc1ccccc1Br)c1cccc2ccccc12` yielded a solubility (kinetic) below 0.7 µg/mL.
Regarding `COc1ccc2c(c1)C(=O)C(=O)N2CC1COc2ccccc2O1` (stereo not drawn), the solubility (kinetic) was determined as 1.7 µg/mL (≈ 5.23 µM).
On to `NC(=O)c1cccnc1Oc1ccc(Cl)cc1Cl`, for which the solubility (kinetic) came to 37.1 µg/mL (≈ 131 µM).
Under `COc1ccc(NS(=O)(=O)c2cc(NC(=O)c3cc(F)c(F)cc3Cl)ccc2N2CCOCC2)cc1` stands 3.7 µg/mL (≈ 6.88 µM); under `CCOC(=O)C1=C(C)NC(=O)NC1c1cccs1` (stereo not drawn), above 39.9 µg/mL; under `Cc1cc(C(=O)Nc2ccc(N3CCCCC3)cc2)no1`, 6.8 µg/mL (≈ 23.8 µM).
`Cc1cc(C)cc(C(=O)NCC(=O)OCC(=O)NC2CCCc3ccccc32)c1` (stereo not drawn) had a kinetic solubility of 8.4 µg/mL (≈ 21.3 µM).
The compound `O=C(CCOc1ccc(F)cc1)Nc1nccs1` displayed a solubility (kinetic) of 5.6 µg/mL (≈ 21 µM). This solubility kinetic is about 1.5-fold lower than that of the compound before.
Turning to `O=C(Cc1ccc(Cl)cc1Cl)NCc1cccnc1`, the kinetic solubility was above 44.3 µg/mL.
Under `Cc1nc(N)nc(N)c1CCCc1ccc(Cl)c(Cl)c1` stands above 46.7 µg/mL; under `Cc1ccc(NS(=O)(=O)c2cc(N)ccc2Cl)c(C)c1`, 43.5 µg/mL (≈ 140 µM).
With `COc1ccc(C)cc1NC(=O)C1CCN(C(=O)c2ccco2)CC1`, the solubility (kinetic) is above 51.4 µg/mL.
Compound `O=C(CNC(=O)c1ccc(F)cc1)Nc1ccccc1C(F)(F)F` displayed a kinetic solubility of 16.2 µg/mL (≈ 47.6 µM).
In the case of `Cc1cccc(C)c1NC(=S)N1CCCN(C)CC1` it was above 41.6 µg/mL; in that of `CC1CCCC(C)N1C(=O)COC(=O)CCC(=O)c1cccs1` (stereo not drawn), above 50.6 µg/mL; in that of `O=C(c1ccc2ncsc2c1)N1CCCCC1`, above 36.9 µg/mL.
In the case of `O=C(Nc1ccc(CN2CCOCC2)cc1)c1ccc(F)cc1`, the kinetic solubility was above 47.2 µg/mL.
On to `O=C(Nc1ccncc1)c1ccc(Br)cc1`, for which the kinetic solubility was above 41.6 µg/mL.
In the case of `CCC(=O)N(Cc1cc2cc(OC)ccc2[nH]c1=O)c1ccc(C)cc1` it was 3 µg/mL (≈ 8.56 µM).
On to `c1ccc2c(CN3CCSCC3)cccc2c1`, for which the kinetic solubility was 4.2 µg/mL (≈ 17.3 µM).
In the case of `CCC1Oc2ccccc2N(CC(=O)NCC2CCCO2)C1=O` (stereo not drawn) it was 44.5 µg/mL (≈ 140 µM).
As for `C/C(=N/O)c1no[n+]([O-])c1/C(C)=N\O`, the solubility (kinetic) is above 30 µg/mL.
For `Cc1ccc(CC(=O)NCC2CCCCC2)cc1`, the solubility (kinetic) is 9.3 µg/mL (≈ 37.9 µM).
Compound `Cc1ccc(C2C(=O)NC(=O)NC2=O)cc1` gave a solubility (kinetic) of 27.7 µg/mL (≈ 127 µM).
Take `CC1CC(C)CN(C(=O)CNS(=O)(=O)c2cccs2)C1` (stereo not drawn): the kinetic solubility was 17.6 µg/mL (≈ 55.6 µM).
The compound `CCOc1ccc(NC(=O)NC(=O)N(C(C)C)S(C)(=O)=O)cc1` displayed a solubility (kinetic) of 43.1 µg/mL (≈ 126 µM).
The compound `COc1ccc(C(=O)N2CCc3c([nH]c4ccccc34)C2C(F)(F)F)cc1` (stereo not drawn) gave a kinetic solubility of 1.1 µg/mL (≈ 2.94 µM).
In the case of `CN(C(=O)c1ccc(Br)o1)C1CCS(=O)(=O)C1` (stereo not drawn), the kinetic solubility was above 48.3 µg/mL.
With `O=[N+]([O-])c1ccc(N2CCOCC2)c2cccnc12`, the kinetic solubility was above 38.9 µg/mL.
Under `CC(C)(C)c1ncc(S(=O)(=O)c2ccc(C(F)(F)F)cn2)c(N)n1` stands 1.4 µg/mL (≈ 3.88 µM); under `O=[N+]([O-])c1ccc(Oc2ccc(Oc3ccc(C(F)(F)F)cn3)cc2)nc1`, 0.3 µg/mL (≈ 0.795 µM); under `CCc1nc(C(N)=O)c2[nH]c(=O)n(-c3ccc(OC)cc3OC)c2n1`, above 51.5 µg/mL.
As for `O=C(NCc1ccccc1Cl)C1CCCO1` (stereo not drawn), the solubility (kinetic) was found to be 32.1 µg/mL (≈ 134 µM).
In turn, `CC(=O)Nc1ccc(OCC(=O)NCc2ccc(C)cc2)cc1` gave a solubility (kinetic) above 46.9 µg/mL.
Compound `CC(=O)c1cnc(-c2ccccc2Cl)s1` came in with a kinetic solubility of 8 µg/mL (≈ 33.7 µM).
Compound `CSc1ccccc1NC(=O)c1cc(-c2ccco2)on1` came in with a solubility (kinetic) of 1.1 µg/mL (≈ 3.66 µM).
Under `O=C(CCc1nc2ccccc2s1)OCC(=O)c1ccc[nH]1` stands 14.2 µg/mL (≈ 45.2 µM); under `COc1cccc(CNCCO)c1OCc1ccc(Cl)cc1.Cl`, above 53.7 µg/mL; under `Cc1ccc(S(=O)(=O)N2CCC[C@H]2C(=O)Nc2ccccc2Cl)cc1`, 17.4 µg/mL (≈ 45.9 µM).
The compound `O=C(O)c1cccc(NC(=S)NC(=O)c2cncc(Br)c2)c1` returned a kinetic solubility above 57 µg/mL.
`Nc1ccc(SCC(=O)Nc2cccc([N+](=O)[O-])c2)cc1`: the kinetic solubility is above 45.5 µg/mL.
As to `COc1cc(/C=C/C(=O)OCC(=O)Nc2cc(S(=O)(=O)N3CCOCC3)ccc2Cl)cc(OC)c1OC`, the kinetic solubility was determined as 5.3 µg/mL (≈ 9.55 µM).
In the case of `O=C(NC1CCS(=O)(=O)C1)c1ccc(Br)o1` (stereo not drawn) it was 32.2 µg/mL (≈ 104 µM); in that of `O=C(NCCCn1ccnc1)c1ccc2nccnc2c1`, above 42.2 µg/mL.
Turning to `COCc1c(C(=O)OCC(=O)NCc2ccco2)oc2ccccc12`, the kinetic solubility turned out to be 48 µg/mL (≈ 140 µM).
In turn, `CC(C)c1ccc(NC(=O)COC(=O)[C@@H]2CCCN2C(=O)c2cccs2)cc1` returned a solubility (kinetic) of 13.3 µg/mL (≈ 33.2 µM).
The compound `O=[N+]([O-])c1ccccc1O[C@@H]1O[C@H](CO)[C@H](O)[C@H](O)[C@H]1O` gave a kinetic solubility above 45.2 µg/mL.
Take `CCOC(=O)c1c(C)[nH]c(C(=O)N2CCC(C(=O)OCC)CC2)c1C`: the solubility (kinetic) is above 52.6 µg/mL.
`CCCCS(=O)(=O)N1CCCC(C(=O)NCC2CCCO2)C1` (stereo not drawn) had a solubility (kinetic) of 41.1 µg/mL (≈ 124 µM).
Consider `O=C(CSc1nccc(=O)[nH]1)Nc1ccc2c(c1)OCCO2`, for which the solubility (kinetic) was determined as 40.8 µg/mL (≈ 128 µM).
In the case of `Cc1ccnc(SCc2cn3c(C)cc(C)nc3n2)n1` it was above 42.8 µg/mL; in that of `O=C(NCc1ccccc1)C1CC(=O)N(C2CCCCCC2)C1` (stereo not drawn), above 47.2 µg/mL.
In the case of `CN(C)/C=C(\C#N)S(=O)(=O)c1ccc(Cl)cc1`, the solubility (kinetic) worked out at 37.7 µg/mL (≈ 139 µM).
Under `CC(NC(=O)c1ccco1)C12CC3CC(CC(C3)C1)C2` (stereo not drawn) stands above 41 µg/mL; under `O=S(=O)(c1ccc(F)c(F)c1)N1CCN(c2ncccn2)CC1`, 2.3 µg/mL (≈ 6.76 µM).
The compound `O=C(NC(=S)NC1CCCCC1)c1ccccc1[N+](=O)[O-]` displayed a solubility (kinetic) of 3 µg/mL (≈ 9.76 µM). This solubility kinetic and that of the compound before are within 1.5-fold of each other.
As to `C[C@H](NCc1c[nH]c2ccccc12)c1ccccc1`, the solubility (kinetic) was above 37.6 µg/mL.
For `O=C(COC(=O)c1ccc(Cl)nc1)NCCc1ccc(F)cc1`, the solubility (kinetic) is above 50.5 µg/mL.
Turning to `Cc1ccc(S(=O)(=O)NCCCC(=O)N2CCC(C)CC2)cc1`, the solubility (kinetic) is above 50.8 µg/mL.
Turning to `COc1ccccc1C(=O)NCC(=O)Nc1cccnc1`, the solubility (kinetic) is above 42.8 µg/mL.
`Cc1cc(C(=O)Nc2c(F)cc(F)cc2Br)cs1` showed a solubility (kinetic) of 25.9 µg/mL (≈ 78 µM).
As to `CC1=C(C)C(OCCCl)N(c2cc(O)c(Cl)cc2F)C1=O` (stereo not drawn), the solubility (kinetic) stood at 46.3 µg/mL (≈ 139 µM).
Compound `COc1ccc(-c2noc(=O)n2Cc2ccc(F)cc2Cl)cc1` displayed a solubility (kinetic) of 3.5 µg/mL (≈ 10.5 µM).
In the case of `Cc1sc(N)nc1-c1c(C)n(C)c2ccccc12` it was 37.6 µg/mL (≈ 146 µM); in that of `Cc1ccnc(NC(=O)c2cccc(OC(F)F)c2)n1`, 39.9 µg/mL (≈ 143 µM).
`Cc1onc(-c2ccccc2)c1C(=O)OCCOc1cccc(Cl)c1` gave a solubility (kinetic) below 0.8 µg/mL.
Turning to `Cc1ccc(S(=O)(=O)CC(=O)N2CCN(c3ccc([N+](=O)[O-])cc3)CC2)cc1`, the solubility (kinetic) amounted to 24.7 µg/mL (≈ 61.2 µM).
Compound `CCOc1ccccc1Nc1ccc(C(=O)O)cc1N` displayed a solubility (kinetic) of 37.6 µg/mL (≈ 138 µM).
In the case of `CCCNc1c(N)c(=O)c1=O` it was above 23.1 µg/mL; in that of `Cc1cc(NCCCOC(C)C)n2c(nc3ccccc32)c1C#N`, 1.4 µg/mL (≈ 4.34 µM); in that of `Cc1csc(NC(=O)c2ccc3ccccc3n2)n1`, 4 µg/mL (≈ 14.9 µM).
For the compound `Cc1cccc2c1NC(=O)C21OCC(CO)([N+](=O)[O-])CO1` (stereo not drawn), the solubility (kinetic) worked out at 24.8 µg/mL (≈ 84.3 µM). This solubility kinetic lies about 6.2-fold higher than the previous one.
With `Cc1cccc(NC(=S)N(CCc2ccncc2)C(C)C)c1C`, the solubility (kinetic) is 32.5 µg/mL (≈ 99.2 µM).
Under `Cc1cccc(NC(=O)COC(=O)c2cc3ccccc3oc2=O)c1` stands below 0.7 µg/mL; under `O=C(O)CCSc1nc2ccccc2n1-c1ccccc1`, above 44.8 µg/mL; under `O=C(NC(Cc1ccc(O)cc1)C(=O)O)c1ccco1` (stereo not drawn), above 41.3 µg/mL.
Consider `CCc1cc(N2CCOCC2)cc2c1[nH]c1ccccc12`, for which the solubility (kinetic) was above 42.1 µg/mL.
Under `CSc1ccc(CN(C)C(=O)c2cc3ccccc3o2)cc1` stands 10.3 µg/mL (≈ 33.1 µM); under `O=C(COc1ccccc1[N+](=O)[O-])OCC(=O)c1ccc(Br)s1`, 59.9 µg/mL (≈ 150 µM); under `COc1ccccc1C(=O)NCc1ccco1`, above 34.7 µg/mL.
Consider `CC(C)(CCO)Nc1ncnc2onc(-c3ccc(F)cc3)c12`, for which the kinetic solubility was above 47.5 µg/mL.
